Assay results published in patent US20230416801A1, “ANTIMICROBIC SUSCEPTIBILITY TESTING USING RECURRENT NEURAL NETWORKS” (Beckman Coulter, Inc., priority 2020, published 2023).

Columns and labels:
Pseudomonas aeruginosa [1] = assay: Growth/no growth determinations made at 4, 5 and 6 hours by trained recurrent neural network (24 GRU) model from test-well organism counts; type: cell-based; details: for 4 Hour Call: model output 0-1 at 4 hours; for 5 Hour Call: model output 0-1 at 5 hours; for 6 Hour Call: model output 0-1 at 6 hours
From the text: FIG. 8 provides an illustration of how data that can be used in an optimized AST method 101 can be captured from a test well. Test well 20 is embodied by a “384” style test well, having a clear viewing bottom. The volume of inoculum in test well 20 may be set to 20 microliters to reduce the amount of materials such as bulk diluents required by AST method 101 and/or minimize light artifacts and provide sampling of a consistent number of microbes from the 1:250 dilution of the 0.5 MacFarland inoculum. Decreasing the volume of inoculum in test well 20 generally increases the light artifacts. In some instances, capturing a single vertical plane 103 at 20× objective whereby AST camera 35 is set at 0.33 microns/pixel may be sufficient for sampling the inoculum and ensuring that each individual microbe is recognizable. However, these parameters are configurable and may change as desired by the user or the underlying needs of the system. Capturing three focal sites spaced about 5 microns apart within single vertical plane 103 may also provide a sufficient number of microbes in the sample to count for use in optimized AST method 101. These three focal sites are labeled site 105, site 107, and site 109 in FIG. 8. In an exemplary version of optimized AST method 101, each focal site is approximately 700×700 microns within single vertical plane 103, rather than capturing three sites in three different vertical planes. AST camera 35, optics system 9, and computer 49 are configured to capture an image of each focal site in consecutive time periods, manipulate each of these images, and thereafter use the data derived from these manipulated images to make a MIC determination.
Once data extraction step 117 derives the desired information from segmented image 143, image analysis cycle 102 terminates. Optimized AST method 101 iteratively performs image analysis cycle 102 at set time intervals to determine how the microbes in each test well 20 are changing and reacting to the particular antimicrobic dilution pairing. Further, optimized AST method 101 iteratively performs image analysis cycle 102 on each test well 20 associated with the microbes to determine how the microbes are reacting to each concentration of the antimicrobic dilution. For example, presume the microbes being tested are E. coli bacteria and three test wells 20 are being tested, with each test well 20 having a 20-microliter solution therein. The first test well 20 may contain an antimicrobic dilution of 1 microgram per milliliter (μg/ml), the second test well 20 may contain an antimicrobic dilution of 2 μg/ml, and the third test well 20 may contain an antimicrobic dilution of 4 μg/ml. Optimized AST method 101 performs image analysis cycle 102 on each of the three test wells at each set time interval to determine (a) how each antimicrobic dilution is affecting the microbes; and (b) how each antimicrobic dilution is performing relative to the other antimicrobic dilutions. If the data indicates the 1 μg/ml antimicrobic dilution is as effective as the 2 and 4 μg/ml antimicrobic dilutions at neutralizing the microbes, the 1 μg/ml antimicrobic dilution is the MIC.
In step 163, the MIC is determined. The determination is based on the data collected during each iteration of image analysis cycle 102 for all of the antimicrobic dilutions for a microbial sample as well as for a control well where no antimicrobial agent was present. As described in the following section, this determination may involve processing the collected data with a machine learning model that had previously been trained to make determinations of whether an antimicrobial dilution in a test well would inhibit growth and then determining the MIC based on the test well with the lowest concentration where the machine learning model made a determination that growth would be inhibited. […]

Pseudomonas aeruginosa [2] = assay: Target growth or no growth label determined after 16 hours; type: cell-based; design: key: a value of 1 could be interpreted as a determination that growth would not be inhibited; a value of 0 could be interpreted as a determination that growth would be inhibited; details: growth label after 16 hours
From the text: As an illustration of how these types of training approaches could be applied in practice, consider tables 5-12, below. In those tables, tables 5-9 provides GRU kernel weights, GRU recurrent weights, GRU bias weights, dense kernel weights, and a dense bias weight for a model implemented using the Keras API (an open source project governed by the Keras Special Interest Group and available at https://keras.io) and Tensorflow backend (an open source machine learning platform developed by Google, Inc. and available at https://www.tensorflow.org/) comprising a network cluster with 24 GRUs trained to make MIC determinations at 4, 5 and 6 hours based on training data for 56 microorganism strains when combined with various antimicrobials and the various combinations were labeled with growth or no growth information determined after 16 hours. In particular, table 5 provides a 1×72 array, in which the first 24 values would be mapped to Wz, the second 24 values would be mapped to Wr and the third 24 values would be mapped to Wh in an embodiment following FIG. 19. Table 6 provides a 72×24 array, in which the first 24×24 array (i.e., the first 24 bracketed sets of values) would be mapped to Uz, the next 24×24 array would be mapped to Ur and the third 24×24 array would be mapped to Uh in an embodiment following FIG. 19. Table 7 provides a 1×72 array, in which the first 24 values would be mapped to bz, the second 24 values would be mapped to br and the third 24 values would be mapped to bh in an embodiment following FIG. 19. Table 8 provides a 1×1344 array of values which would be multiplied by the output of the combination function 1806 in the dense layer 1807. Table 9 provides a bias value which would be added to the output of the dense layer 1807 before it was provided to the activation function 1808. Table 10 provides growth/no growth determinations made at 4, 5 and 6 hours by a system trained as described above for Pseudomonas aeruginosa and the drug Ceftazidime. Tables 11-12 provide microorganisms and antimicrobials included in the training data described above and for which the model was confirmed to be effective.

SMILES: CC(C)(O/N=C(\C(=O)N[C@@H]1C(=O)N2C(C(=O)[O-])=C(C[n+]3ccccc3)CS[C@H]12)c1csc(N)n1)C(=O)O [Ceftazidime]
- 4 Hour Call (Pseudomonas aeruginosa [1]; Dilution 0.03): 1
- 5 Hour Call (Pseudomonas aeruginosa [1]; Dilution 0.03): 1
- 6 Hour Call (Pseudomonas aeruginosa [1]; Dilution 0.03): 1
- 4 Hour Call (Pseudomonas aeruginosa [1]; Dilution 0.06): 1
- 5 Hour Call (Pseudomonas aeruginosa [1]; Dilution 0.06): 1
- 6 Hour Call (Pseudomonas aeruginosa [1]; Dilution 0.06): 1
- 4 Hour Call (Pseudomonas aeruginosa [1]; Dilution 0.12): 1
- 5 Hour Call (Pseudomonas aeruginosa [1]; Dilution 0.12): 1
- 6 Hour Call (Pseudomonas aeruginosa [1]; Dilution 0.12): 1
- 4 Hour Call (Pseudomonas aeruginosa [1]; Dilution 0.25): 1
- 5 Hour Call (Pseudomonas aeruginosa [1]; Dilution 0.25): 1
- 6 Hour Call (Pseudomonas aeruginosa [1]; Dilution 0.25): 1
- 4 Hour Call (Pseudomonas aeruginosa [1]; Dilution 0.5): 1
- 5 Hour Call (Pseudomonas aeruginosa [1]; Dilution 0.5): 1
- 6 Hour Call (Pseudomonas aeruginosa [1]; Dilution 0.5): 1
- 4 Hour Call (Pseudomonas aeruginosa [1]; Dilution 1): 0.2105
- 5 Hour Call (Pseudomonas aeruginosa [1]; Dilution 1): 0.9399
- 6 Hour Call (Pseudomonas aeruginosa [1]; Dilution 1): 0.9518
- 4 Hour Call (Pseudomonas aeruginosa [1]; Dilution 2): 0.003836
- 5 Hour Call (Pseudomonas aeruginosa [1]; Dilution 2): 4.89E−05
- 6 Hour Call (Pseudomonas aeruginosa [1]; Dilution 2): 3.77E−06
- 4 Hour Call (Pseudomonas aeruginosa [1]; Dilution 4): 0.002258
- 5 Hour Call (Pseudomonas aeruginosa [1]; Dilution 4): 7.26E−06
- 6 Hour Call (Pseudomonas aeruginosa [1]; Dilution 4): 2.27E−07
- 4 Hour Call (Pseudomonas aeruginosa [1]; Dilution 8): 0.0001531
- 5 Hour Call (Pseudomonas aeruginosa [1]; Dilution 8): 0.0005926
- 6 Hour Call (Pseudomonas aeruginosa [1]; Dilution 8): 0.000432
- 4 Hour Call (Pseudomonas aeruginosa [1]; Dilution 16): 0.003935
- 5 Hour Call (Pseudomonas aeruginosa [1]; Dilution 16): 0.001447
- 6 Hour Call (Pseudomonas aeruginosa [1]; Dilution 16): 2.32E−06
- 4 Hour Call (Pseudomonas aeruginosa [1]; Dilution 32): 0.009609
- 5 Hour Call (Pseudomonas aeruginosa [1]; Dilution 32): 5.69E−05
- 6 Hour Call (Pseudomonas aeruginosa [1]; Dilution 32): 1.23E−06
- 4 Hour Call (Pseudomonas aeruginosa [1]; Dilution 64): 0.001147
- 5 Hour Call (Pseudomonas aeruginosa [1]; Dilution 64): 1.21E−05
- 6 Hour Call (Pseudomonas aeruginosa [1]; Dilution 64): 1.64E−06
- Target (Pseudomonas aeruginosa [2]; Dilution 0.03): 1
- Target (Pseudomonas aeruginosa [2]; Dilution 0.06): 1
- Target (Pseudomonas aeruginosa [2]; Dilution 0.12): 1
- Target (Pseudomonas aeruginosa [2]; Dilution 0.25): 1
- Target (Pseudomonas aeruginosa [2]; Dilution 0.5): 1
- Target (Pseudomonas aeruginosa [2]; Dilution 1): 1
- Target (Pseudomonas aeruginosa [2]; Dilution 2): 0
- Target (Pseudomonas aeruginosa [2]; Dilution 4): 0
- Target (Pseudomonas aeruginosa [2]; Dilution 8): 0
- Target (Pseudomonas aeruginosa [2]; Dilution 16): 0
- Target (Pseudomonas aeruginosa [2]; Dilution 32): 0
- Target (Pseudomonas aeruginosa [2]; Dilution 64): 0
